Experimental data published in US10245257B2, “Anti-infective methods, compositions, and devices” (Dow Pharmaceutical Sciences, Inc., priority 2013, dated 2019).
Where two headings read alike, the source gives them in different places.

Columns and labels:
[1] = test system: T. mentagrophytes, T. rubrum and C. albicans; assay: Drug resistance development in vitro by serial passage of fungal cultures; format: cell-based; details: serial passage in the presence of sub-growth inhibitory concentrations
Excerpt: Efinaconazole drug resistance development was studied in vitro against T. mentagrophytes, T. rubrum and C. albicans. […] The clinical significance of these in vitro results is unknown.

bacterial = assay: Bacterial reverse mutation assay; format: cell-based
CYP2C9 = CYP2C9 (Homo sapiens, UniProt P11712); assay: biochemical; format: in vitro ADME
Excerpt: The 2006 Food and Drug Administration Drug Interaction Studies—Study Design, Data Analysis, and Implications for Dosing and Labeling draft guidance recommends clinical evaluation for drugs that are CYP inhibitors if the mean steady state Cmax/Ki is greater than 0.1.

[2] = mouse, in vivo
[3] = Pharmacokinetic study in healthy volunteers, topical application to all 10 toenails; format: in vivo, human; details: for Cmax: mean +/- SD; for AUC(0-t): read-out: AUC24h
Method: In […] patients, efinaconazole 10% solution (IDP-108) was applied topically to all 10 toenails (0.42 mL total daily dose volume) administered as single and then 7 daily doses to 10 healthy volunteers, and once daily for 28 days to 18 severe onychomycosis patients. The efinaconazole 10% solution (0.42 mL/subject) was applied topically in the morning, unoccluded (i.e., without occluding, blocking or covering the nail with, for example, adhesive tape, bandage, dressing, sealant, etc.), by a trained nurse or study technician to all 10 toenails as a single dose (day 1), and seven consecutive daily doses (day 4 through day 10). A volume of 90 μL was applied on each great toenail and 30 μL on each of the remaining 8 toenails. There were no study drug applications on days 2 and 3.
Blood samples were collected at pre-dose, and 1, 2, 4, 6, 8, 10, 12, 16, 24, 28, 32, 36, 48, and 72 hours after dosing on days 1 and 10; and at pre-dose on days 6 and 8. Blood was processed to plasma and stored frozen until analysis.
(§1) Plasma concentrations of efinaconazole and its major metabolite H3 were determined by LC-MS-MS at multiple timepoints. Plasma concentrations of efinaconazole and H3 were determined using a validated LC-MS-MS method. […] The concentration of efinaconazole in plasma was determined at multiple time points over the course of 24-hour periods on days 1, 14, and 28. Plasma concentrations below the lower limit were set to zero for PK analyses. Pharmacokinetic parameters were calculated from individual plasma concentrations, whenever possible, using noncompartmental analysis in WinNonlin (Pharsight, Sunnyvale, Calif., USA), and included Cmax (observed peak drug concentration), Tmax (time at which Cmax occurs), Cmin (observed minimum drug concentration), t1/2 (apparent half-life), and AUC (area under the concentration-time curve).

CHL cell = format: cell-based
[4] = set-up: species or system rats; details: rat, in vivo, sc
[5] = Pharmacokinetic study in severe onychomycosis patients, once daily for 28 days; format: in vivo, human; details: for AUC(0-t): read-out: AUC24h; for Cmax: mean +/- SD
Method: Systemic absorption of efinaconazole in 18 […] patients with severe onychomycosis was determined after application of IDP-108 (10% efinaconazole) once daily for 28 days to patients' 10 toenails and adjacent skin. Specifically, two single-center, open-label studies in healthy volunteers and severe onychomycosis patients.
A separate single-center, open-label study to evaluate safety and PK of efinaconazole and its H3 metabolite in 20 patients with severe toenail onychomycosis also was conducted. The study enrolled men and women 18-70 years of age who had clinical diagnoses of stable or exacerbating severe DLSO affecting ≥80% of the area of both great toenails. The great toenails had evidence of toenail growth, and at least four toenails other than the great toenails were also affected by onychomycosis. A positive microscopic examination with potassium hydroxide (KOH) for the hyphae associated with dermatophytes was obtained for at least one great toenail at the screening visit.
Efinaconazole 10% solution (0.42 mL/subject) was applied topically, unoccluded, once daily in the morning for 28 days to all 10 toenails by a trained nurse or study technician, including to the toenail folds, toenail bed, hyponychium, and approximately 0.5 cm of skin around the toenail in all directions to ensure they were completely covered.
Blood samples were collected at predose and at 1, 2, 4, 6, 8, 10, 12, 16, and 24 hours postdose on days 1, 14, and 28. Blood was processed to plasma and stored frozen until analysis.
as §1

Chain of CYP2C9 (P11712 whole entry): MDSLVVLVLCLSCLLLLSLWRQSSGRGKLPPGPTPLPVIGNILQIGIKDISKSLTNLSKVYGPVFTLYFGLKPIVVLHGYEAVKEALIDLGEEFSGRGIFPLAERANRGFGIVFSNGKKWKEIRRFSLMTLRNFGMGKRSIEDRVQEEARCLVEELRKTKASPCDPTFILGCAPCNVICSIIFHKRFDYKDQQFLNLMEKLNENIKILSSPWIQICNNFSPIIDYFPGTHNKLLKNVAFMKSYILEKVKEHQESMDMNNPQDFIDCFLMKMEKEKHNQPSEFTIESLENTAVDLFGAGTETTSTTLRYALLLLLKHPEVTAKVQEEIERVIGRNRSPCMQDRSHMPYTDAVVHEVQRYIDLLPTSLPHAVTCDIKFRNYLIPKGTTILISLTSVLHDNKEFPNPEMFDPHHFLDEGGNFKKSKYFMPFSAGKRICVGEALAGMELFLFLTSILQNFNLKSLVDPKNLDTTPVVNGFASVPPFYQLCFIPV

## C=C1CCN([C@H](C)[C@](O)(Cn2cncn2)c2ccc(F)cc2F)CC1 [efinaconazole, (2R,3R)-2-(2,4-difluorophenyl)-3-(4-methylenepiperidin-1-yl)-1-(1H-1,2,4-triazol-1-yl) butan-2-ol]
[1]
  increase of the MIC: up to 4 fold
bacterial
  mutagenicity: not mutagenic
CYP2C9
  Ki: 261 nM
  steady state Cmax/Ki: 0.007
[2]
  clastogenicity: not clastogenic
[3]; fifth topical application, both toenails and back skin
  steady-state reached on Day: 8 days
[3]; healthy volunteers
  Systemic exposure (AUC24h) on day 10 relative to day 1: approximately 3.6 fold
[3]; healthy volunteers, Day 1 (single dose), plasma
  Cmax: 0.38 ± 0.39 ng/mL
[3]; healthy volunteers, Day 10 (7th daily dose), plasma
  Cmax: 0.54 ± 0.22 ng/mL
[3]; healthy volunteers, Day 10, mean +/- SD
  Cmin: 0.47 ± 0.18 ng/mL
[3]; healthy volunteers, stated after the day 10 range
  average plasma concentration: 0.37 ng/mL
[3]; human, plasma, topical, 0.42 mL/subject, healthy volunteers, Day 1 (single dose), plasma, read-out: Cmax
  Cmax: 0.382 ng/mL
[3]; human, plasma, topical, 0.42 mL/subject, healthy volunteers, Day 1, mean +/- SD
  AUC(0-t): 2.64 ± 2.85 ng·h/mL
[3]; human, plasma, topical, 0.42 mL/subject, healthy volunteers, Day 1, value [range]
  Tmax: 24 h
[3]; human, plasma, topical, 0.42 mL/subject, healthy volunteers, Day 10 (7th daily dose), plasma, read-out: Cmax
  Cmax: 0.542 ng/mL
[3]; human, plasma, topical, 0.42 mL/subject, healthy volunteers, Day 10, mean +/- SD
  AUC(0-t): 9.48 ± 3.86 ng·h/mL
[3]; human, plasma, topical, 0.42 mL/subject, healthy volunteers, Day 10, value [range]
  Tmax: 10 h
[3]; human, plasma, topical, 0.42 mL/subject, healthy volunteers, day 1, read-out: plasma concentration range
  concentration at 1 day: 0 to 1.11 ng/mL
[3]; human, plasma, topical, 0.42 mL/subject, healthy volunteers, day 10, read-out: plasma concentration range
  concentration at 10 day: 0.25 to 0.85 ng/mL
CHL cell
  clastogenicity: not clastogenic
[4]; 5 mg/kg/day
  effect on estrous cycle in females: did not have effects
[4]; 25 mg/kg/day
  effect on estrous cycle in females: delayed the estrous cycle
[5]; both PK studies (healthy volunteers and onychomycosis patients)
  tolerability, drug-related adverse events: well tolerated
[5]; both sexes, human, plasma, topical, 0.42 mL/subject, onychomycosis patients, Day 1
  Tmax: 23.9 h
[5]; both sexes, human, plasma, topical, 0.42 mL/subject, onychomycosis patients, Day 1, mean +/- SD
  AUC(0-t): 1.79 ng·h/mL
[5]; both sexes, human, plasma, topical, 0.42 mL/subject, onychomycosis patients, Day 1, plasma
  Cmax: 0.23 ± 0.18 ng/mL
[5]; both sexes, human, plasma, topical, 0.42 mL/subject, onychomycosis patients, Day 14
  Tmax: 4.55 h
[5]; both sexes, human, plasma, topical, 0.42 mL/subject, onychomycosis patients, Day 14, mean +/- SD
  AUC(0-t): 10.9 ± 5.9 ng·h/mL
[5]; both sexes, human, plasma, topical, 0.42 mL/subject, onychomycosis patients, Day 14, plasma
  Cmax: 0.62 ± 0.23 ng/mL
[5]; both sexes, human, plasma, topical, 0.42 mL/subject, onychomycosis patients, Day 28
  Tmax: 16 h
[5]; both sexes, human, plasma, topical, 0.42 mL/subject, onychomycosis patients, Day 28, mean +/- SD
  AUC(0-t): 12.2 ng·h/mL
[5]; both sexes, human, plasma, topical, 0.42 mL/subject, onychomycosis patients, Day 28, plasma
  Cmax: 0.67 ng/mL
[5]; both sexes, human, plasma, topical, 0.42 mL/subject, onychomycosis patients, detected in several subjects, read-out: mean plasma concentrations two weeks after the last dose
  concentration at 2 weeks after the last dose: 0.07 ng/mL
[5]; onychomycosis patients, Day 14, mean +/- SD
  Cmin: 0.33 ± 0.17 ng/mL
[5]; onychomycosis patients, Day 28, mean +/- SD
  Cmin: 0.36 ± 0.20 ng/mL
